≈ marks a conversion by molar mass, not a printed value.

Experimental findings from DBAASP are described below.

Some test systems named below: Bacillus cereus; Enterococcus faecalis; Escherichia coli; Leuconostoc lactis; Listeria innocua; Micrococcus luteus; Pasteurella multocida; Staphylococcus aureus; Streptococcus uberis; Escherichia coli K-12; Acinetobacter baumannii; Enterococcus faecium; Klebsiella pneumoniae; Serratia marcescens; Candida albicans; Proteus mirabilis; Pseudomonas aeruginosa; Salmonella typhimurium; Shigella dysenteriae.

Holding throughout (test): ≥ marks a high value that may be exact or a test limit, other limits are often not marked, values filed in µg/mL are converted to µM
Assay [1] deals with Staphylococcus epidermidis.
Assay [2] has as its system Staphylococcus aureus USA 300.
The test system of assay [3] is Candida albicans ATCC 2002.
In assay [4] the test system is Escherichia coli ATCC 25922.
In assay [5] the test system is Staphylococcus aureus ATCC 2592.
Assay [6] concerns Clavibacter michiganensis subsp. michiganensis DSM 46294.
Assay [7] has as its system Pectobacterium carotovorum subsp. carotovorum DSM 30168.
For assay [8], the system named is Pseudomonas corrugata DSM 7228.
The test system of assay [9] is Pseudomonas syringae pv. syringae DSM 10604.
Assay [10] concerns Pseudomonas syringae pv. tomato DC3000.
Assay [11] relates to Xanthomonas vesicatoria DSM 50861.
The subject of assay [12] is Pseudomonas aeruginosa PAO1.
For assay [13], the system named is Klebsiella pneumoniae ATCC 13883.

As a reminder, the MIC is the lowest concentration found to suppress growth. Low values mean greater potency, high ones weaker potency. On to `CC[C@H](C)[C@H](NC(=O)[C@H](C)NC(=O)[C@@H]1CCCN1C(=O)[C@@H](NC(=O)[C@@H](NC(=O)[C@H](Cc1cnc[nH]1)NC(=O)[C@H](CO)NC(=O)[C@H](C)NC(=O)[C@@H](NC(=O)[C@H](CCCCN)NC(=O)[C@H](C)NC(=O)[C@H](CC(C)C)NC(=O)[C@@H](NC(=O)CNC(=O)[C@H](Cc1ccccc1)NC(=O)[C@H](CC(C)C)NC(=O)CN)C(C)C)C(C)C)C(C)C)C(C)C)C(=O)N[C@@H](C)C(=O)N[C@@H](CCC(=O)O)C(=O)N[C@@H](Cc1cnc[nH]1)C(=O)N[C@@H](Cc1ccccc1)C(=O)N[C@@H](CCC(N)=O)C(=O)N[C@@H](C)C(N)=O` [GLFGVLAKVASHVVPAIAEHFQA], for which the MIC was at least 42.3 µM in the assay on Bacillus cereus; at least 42.3 µM against Enterococcus faecalis; above 42.3 µM against Escherichia coli; at least 42.3 µM in the assay on Leuconostoc lactis; at least 42.3 µM against Listeria innocua; at least 42.3 µM in the assay with Micrococcus luteus. Further, the MIC was at least 42.3 µM in the assay on Pasteurella multocida, 21.2 µM (≈ 50 µg/mL) against Staphylococcus aureus, at least 42.3 µM in [1] and 2.54 µM (≈ 6 µg/mL) against Streptococcus uberis.

For the compound `CC[C@H](C)[C@H](NC(=O)[C@H](C)NC(=O)[C@H](CCC(=O)O)NC(=O)[C@H](Cc1cnc[nH]1)NC(=O)[C@H](CC(C)C)NC(=O)CNC(=O)[C@H](CCC(N)=O)NC(=O)[C@H](Cc1ccccc1)NC(=O)[C@@H](NC(=O)[C@H](CCCCN)NC(=O)[C@H](CCCCN)NC(=O)[C@H](CC(C)C)NC(=O)[C@@H](NC(=O)[C@H](CC(N)=O)NC(=O)[C@H](CC(C)C)NC(=O)CN)[C@@H](C)O)C(C)C)C(=O)N[C@@H](CCCCN)C(=O)N[C@@H](CC(C)C)C(=O)N[C@H](C(=O)N[C@@H](CC(N)=O)C(=O)N[C@@H](CC(N)=O)C(=O)N[C@@H](Cc1cnc[nH]1)C(=O)N[C@H](C(=O)N[C@@H](CCC(N)=O)C(=O)O)C(C)C)[C@@H](C)CC` [GLNTLKKVFQGLHEAIKLINNHVQ], the MIC (in the assay on Escherichia coli K-12; in [2]) was at least 100 µM throughout.

Turning to `CC[C@H](C)[C@H](NC(=O)[C@H](CCCCN)NC(=O)[C@H](CS)NC(=O)[C@H](CC(C)C)NC(=O)CNC(=O)CNC(=O)[C@H](C)NC(=O)[C@@H](NC(=O)[C@H](CC(N)=O)NC(=O)[C@H](CCCCN)NC(=O)[C@H](CC(C)C)NC(=O)[C@@H](NC(=O)[C@H](CC(N)=O)NC(=O)[C@H](C)NC(=O)[C@H](Cc1c[nH]c2ccccc12)NC(=O)CN)[C@@H](C)O)C(C)C)C(=O)N[C@H](C(=O)NCC(=O)N[C@@H](C)C(=O)N[C@@H](C)C(=O)O)[C@@H](C)O` [GWANTLKNVAGGLCKITGAA], the MIC is 19.3 µM (≈ 37.5 µg/mL) against Acinetobacter baumannii; at least 38.6 µM in assay [3]; 19.3 µM (≈ 37.5 µg/mL) against Enterococcus faecium; above 51.4 µM in assay [4]; above 51.4 µM with Klebsiella pneumoniae; at least 51.4 µM in the assay on Serratia marcescens. The compound also registered an MIC in [5] of 19.3 µM (≈ 37.5 µg/mL).

In the case of `CC[C@H](C)[C@H](NC(=O)[C@H](CC(C)C)NC(=O)[C@H](CCCN=C(N)N)NC(=O)[C@H](CCCCN)NC(=O)[C@@H](NC(=O)[C@@H](NC(=O)[C@H](CCCCN)NC(=O)[C@H](CCCCN)NC(=O)[C@H](CCCCN)NC(=O)[C@@H](N)CCCCN)[C@@H](C)CC)[C@@H](C)CC)C(N)=O` [KKKKIIKRLI], the MIC is 7.89 µM (≈ 9.99 µg/mL) in assay [6]; 7.89 µM (≈ 9.99 µg/mL) in [7]; 3.94 µM (≈ 5 µg/mL) in assay [8]; 0.0789 µM (≈ 0.0999 µg/mL) in [9]; 0.789 µM (≈ 0.999 µg/mL) in [10]; 7.89 µM (≈ 9.99 µg/mL) in [11].

Take `CC[C@H](C)[C@H](NC(=O)[C@H](C)NC(=O)[C@H](CCSC)NC(=O)CNC(=O)[C@H](CCCCN)NC(=O)[C@@H](NC(=O)[C@H](CO)NC(=O)[C@H](CC(=O)O)NC(=O)[C@H](CC(C)C)NC(=O)[C@H](CC(C)C)NC(=O)CN)[C@@H](C)CC)C(=O)N[C@@H](CO)C(=O)N[C@@H](C)C(=O)NCC(=O)N[C@@H](CCCCN)C(=O)NCC(=O)N[C@@H](C)C(=O)N[C@@H](CC(C)C)C(=O)N[C@@H](CCC(N)=O)C(=O)N[C@@H](CC(N)=O)C(=O)N[C@@H](CC(C)C)C(=O)N[C@@H](CC(C)C)C(=O)N[C@@H](CCCCN)C(=O)N[C@H](C(=O)N[C@@H](C)C(=O)N[C@@H](CO)C(=O)N[C@H]1CSSC[C@@H](C(=O)O)NC(=O)[C@H]([C@@H](C)O)NC(=O)[C@H](CCCCN)NC(=O)[C@H](CC(=O)O)NC(=O)[C@H](CC(C)C)NC(=O)[C@H](CCCCN)NC1=O)C(C)C` [GLLDSIKGMAISAGKGALQNLLKVASCKLDKTC]: the MIC against Candida albicans is 29.9 µM (≈ 99.9 µg/mL); against Klebsiella pneumoniae, 2.99 µM (≈ 9.99 µg/mL); against Micrococcus luteus, 0.747 µM (≈ 2.5 µg/mL); with Proteus mirabilis it was at least 59.7 µM; in the assay with Pseudomonas aeruginosa it was 22.4 µM (≈ 75 µg/mL); against Salmonella typhimurium, 6.72 µM (≈ 22.5 µg/mL). Moreover, the results for the MIC in the assay on Serratia marcescens and with Shigella dysenteriae were at least 59.7 µM and 2.99 µM (≈ 9.99 µg/mL), respectively.

Take `CC(C)C[C@H](NC(=O)[C@H](CC(C)C)NC(=O)[C@H](CCCCN)NC(=O)CNC(=O)[C@H](C)NC(=O)[C@H](C)NC(=O)[C@H](CCCCN)NC(=O)[C@H](CC(C)C)NC(=O)[C@H](C)NC(=O)[C@H](CO)NC(=O)[C@H](CC(C)C)NC(=O)[C@H](CC(C)C)NC(=O)CN)C(N)=O` [GLLSALKAAGKLL]: the figures for the MIC in assay [4], in assay [12] and in assay [2] were 12.5 µM (≈ 15.7 µg/mL), above 25 µM and 12.5 µM (≈ 15.7 µg/mL), respectively.

As for `CC[C@H](C)[C@H](NC(=O)[C@@H](NC(=O)[C@H](CCCCN)NC(=O)[C@H](CCCCN)NC(=O)[C@@H](NC(=O)[C@@H](NC(=O)[C@H](CCCCN)NC(=O)[C@H](CCCCN)NC(=O)[C@H](CCCCN)NC(=O)[C@H](CCCCN)NC(=O)[C@H](CCCCN)NC(=O)[C@@H](N)CCCCN)[C@@H](C)CC)[C@@H](C)CC)[C@@H](C)CC)C(N)=O` [KKKKKKIIKKII], the MIC was determined as 6.68 µM (≈ 9.99 µg/mL) in assay [6]; 6.68 µM (≈ 9.99 µg/mL) in assay [7]; 6.68 µM (≈ 9.99 µg/mL) in [8]; 1.67 µM (≈ 2.5 µg/mL) in assay [9]; 0.668 µM (≈ 0.999 µg/mL) in assay [10]; 6.68 µM (≈ 9.99 µg/mL) in assay [11].

As to `CC[C@H](C)[C@H](NC(=O)[C@H](CCCCN)NC(=O)[C@H](CCC(N)=O)NC(=O)[C@@H](NC(=O)[C@@H](NC(=O)[C@H](CCCN=C(N)N)NC(=O)[C@H](CCCCN)NC(=O)[C@H](Cc1ccccc1)NC(=O)CN)[C@@H](C)CC)C(C)C)C(=O)N[C@@H](CCCN=C(N)N)C(=O)N[C@@H](CC(=O)O)C(=O)N[C@@H](Cc1ccccc1)C(=O)N[C@@H](CC(C)C)C(=O)N[C@@H](CCCN=C(N)N)C(=O)N[C@@H](CC(N)=O)C(=O)N[C@@H](CC(C)C)C(=O)N[C@H](C(N)=O)C(C)C` [GFKRIVQKIRDFLRNLV], the MIC in assay [4] is 4.4 µM (≈ 9.25 µg/mL); in assay [13], 3.1 µM (≈ 6.51 µg/mL); in [12] it was 25 µM (≈ 52.5 µg/mL); in assay [2] it was 2.2 µM (≈ 4.62 µg/mL).
